Test results from US8598145B2, “Mitochondrially delivered anti-cancer compounds” (priority 2008, dated 2013).

Tested on: EAhy926 cells
Test: Angiogenesis in vitro: wound-healing and tube-forming (FIG. 7)
Type: cell-based, human
Method: Wound-healing (A-F) and tube-forming activity (G, H) were assessed using the EC EAhy926 cells. For wound-healing activity, the cells were seeded in 35-mm Petri dishes and allowed to reach 100% confluency. The ‘injury’ was then performed, resulting in a denuded gap of 0.4-0.5 mm. Wound-healing activity in control cells and cells supplemented with 1, 5 or 10 μM MitoVES was assessed on the basis of proliferation and migration of cells into the denuded zone using a light microscope equipped with a grid and a digital camera (A). […] In panel C, representative images of injured control cells and cells treated with 10 μM MitoVES at different times are presented. […] EAhy926 cells were seeded at ˜10^5 per well in Matrigel-coated 24-well plates and allowed for 24 h to form tubes at the absence or presence of MitoVES. Complete capillaries connecting points of individual polygons (see General Materials and Methods) were counted per the field of 0.16 mm^2 and took as a measure of the tube-forming activity (F). […] At 20 h of treatment, the cells were retrieved from the Matrigel and assessed for apoptosis using the Annexin V binding method (H). Parental EAhy926 cells and their ρ^0 counterparts were seeded in Petri dishes at confluency, ‘injured’ as described above, and the wound-healing activity assessed in the absence or presence of 10 μM MitoVES (MVES) (I; see symbols above panel L). The healing rate was estimated from the slopes in panel I and plotted in […] (J). At 20 h, the cells were assessed for the level of apoptosis (K). Panel L documents tube-forming activity in Matrigel of the ρ^0 EAhy 926 cells in the absence or presence of 5 μM MitoVES. […]
To assess the effect of α-TOS on the wound-healing activity of the EAhy926 cells, the cells were seeded in […] Petri dishes and allowed to reach complete confluence. […] Regrowth of cells (wound healing) in the presence of α-TOS or α-TEA was assessed by following the kinetics of narrowing the denuded gap in the microscope equipped with a grid in the eyepiece and healing expressed as the ‘rate of filling the gap’ as the rate of healing in μm/h. […]

`Cc1c(C)c2c(c(C)c1OC(=O)CCC(=O)[O-])CCC(C)(CCCCCCCCCCC[P+](c1ccccc1)(c1ccccc1)c1ccccc1)O2` (stereo not drawn) [MitoVE11S] was tested, and the “fold greater potency as antiangiogenic drug than α-TOS” value (relative to α-TOS) was 5 fold, the “concentration needed for comparable levels of effects on endothelial cells” value (same endothelial cell types) was 5 to 10 µM and the angiogenesis in vitro (wound-healing, tube-forming and apoptosis assays) was “inhibits angiogenesis in vitro”.
